For one assay, the target named is Cannabinoid receptor 1 (Rattus norvegicus, UniProt P20272). The assay can be described thus: Displacement of [3H]SR141716A from CB1 receptor in rat cerebellum membrane. In kind it is cell membranes. A general note: In a radioligand displacement assay an active substance lowers the binding of a labelled ligand.
Sequence of Cannabinoid receptor 1 (P20272 whole entry): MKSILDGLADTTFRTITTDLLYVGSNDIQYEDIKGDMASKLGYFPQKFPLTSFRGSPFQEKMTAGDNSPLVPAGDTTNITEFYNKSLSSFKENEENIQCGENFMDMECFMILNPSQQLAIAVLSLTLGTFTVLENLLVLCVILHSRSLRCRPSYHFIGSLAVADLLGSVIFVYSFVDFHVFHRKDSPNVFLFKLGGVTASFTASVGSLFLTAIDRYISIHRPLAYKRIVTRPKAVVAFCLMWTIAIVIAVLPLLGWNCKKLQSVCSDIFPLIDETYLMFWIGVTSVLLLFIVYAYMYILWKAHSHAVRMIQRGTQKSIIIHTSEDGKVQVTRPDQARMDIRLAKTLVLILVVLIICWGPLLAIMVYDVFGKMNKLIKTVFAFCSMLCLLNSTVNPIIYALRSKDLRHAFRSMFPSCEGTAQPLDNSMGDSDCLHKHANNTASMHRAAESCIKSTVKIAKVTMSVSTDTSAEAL
A word on the Ki: it is the equilibrium dissociation constant of an inhibitor or competing ligand from its target. Higher therefore signals a looser hold on the target. Consider `CCCCN(CC(=O)N1c2ccccc2-n2cccc2C1c1ccc(F)cc1)C(=O)C(C)Cl` (centres undefined), for which the Ki was 162 nM.

In turn, `CCCCN(CC(=O)N1c2ccccc2-n2cccc2C1c1ccccc1)C(=O)C(C)Cl` (centres undefined) yielded a Ki of 260 nM.

Consider `CCCCN(CC(=O)N1c2ccccc2-n2cccc2C1c1ccc(OC)cc1)C(=O)c1cc(Cl)cc(Cl)c1` (centres undefined), for which the Ki is 831 nM.

`CCCCN(CC(=O)N1c2ccccc2-n2cccc2C1c1ccc(OC)cc1)C(=O)C(C)C` (centres undefined) yielded a Ki of 124 nM. This Ki lies about 6.7-fold lower than the previous one.

Regarding `CCCCN(CC(=O)N1c2ccccc2-n2cccc2C1c1ccc(OC)cc1)C(=O)COC` (centres undefined), the inhibition constant (Ki) turned out to be 461 nM.

Molecule `COc1ccc(C2c3cccn3-c3ccccc3N2C(=O)CN(C(=O)C(C)Cl)C(C)C)cc1` (centres undefined) showed a Ki of 220 nM.

In turn, `CCCCN(CC(=O)N1c2ccccc2-n2cccc2C1c1ccc(OC)cc1)C(=O)c1ccccc1Cl` (centres undefined) showed a Ki of 137 nM.

`CCCCN(CC(=O)N1c2ccccc2-n2cccc2C1c1ccc(OC)cc1)C(=O)c1ccccc1C` (centres undefined) showed a Ki of 503 nM.

For the molecule `CCCCN(CC(=O)N1c2ccccc2-n2cccc2C1c1ccc(OC)cc1)C(=O)C1CCC1` (centres undefined), the Ki is 214 nM.

`CCCCN(CC(=O)N1c2ccccc2-n2cccc2C1c1ccc(OC)cc1)C(=O)C1CCCC1` (centres undefined) gave a Ki of 602 nM.

On to `CCCCN(CC(=O)N1c2ccccc2-n2cccc2C1c1ccc(OC)cc1)C(=O)C(C)Cl` (centres undefined), for which affinity was put at a Ki of 46 nM. Against the preceding molecule, the Ki is about 13-fold lower.

`CCCCN(CC(=O)N1c2ccccc2-n2cccc2C1c1ccc(OC)cc1)C(=O)CC` (centres undefined): the Ki is 539 nM.

`CCCCN(CC(=O)N1c2ccccc2-n2cccc2C1c1ccc(OC)cc1)C(=O)CC(C)C` (centres undefined) returned a Ki of 236 nM.

Molecule `CCCCN(CC(=O)N1c2ccccc2-n2cccc2C1c1ccc(OC)cc1)C(=O)c1ccccc1F` (centres undefined) gave a Ki of 349 nM.

Take `CCCCN(CC(=O)N1c2ccccc2-n2cccc2C1c1ccc(Cl)cc1)C(=O)C(C)Cl` (centres undefined): the Ki is 45 nM. Compared with the last molecule, the Ki is about 7.8-fold lower.

The molecule `CCCCN(CC(=O)N1c2ccccc2-n2cccc2C1c1ccc(OC)cc1)C(=O)C1CC1` (centres undefined) returned a Ki of 78 nM.

In a further assay the target is Cannabinoid receptor 1 (Rattus norvegicus) (UniProt P20272). Briefly: Displacement of [3H]SR141716A from CB1 receptor in rat cerebellum membrane at 1 uM. In kind it is cell membranes.
Sequence of Cannabinoid receptor 1 (Rattus norvegicus) (P20272 whole entry): as above
For orientation: inhibition means the share of the control response that was lost under treatment. In turn, `CCCCN(CC(=O)N1c2ccccc2-n2cccc2C1CC)C(=O)C(C)Cl` (centres undefined) yielded an inhibition of 14%.

Take `CCCCN(CC(=O)N1c2ccccc2-n2cccc2C1c1cc(OC)ccc1OC)C(=O)C(C)Cl` (centres undefined): the inhibition worked out at 45%.

`COc1ccc(C2c3cccn3-c3ccccc3N2C(=O)CN(C)C(=O)C(C)Cl)cc1` (centres undefined) yielded an inhibition of 46%.

In turn, `CCCCN(CC(=O)N1c2ccccc2-n2cccc2C1c1ccccc1OC)C(=O)C(C)Cl` (centres undefined) returned an inhibition of 36%.

`CCCCN(CC(=O)N1c2ccccc2-n2cccc2C1c1ccc(OC)cc1)C(C)=O` (centres undefined) registered an inhibition of 31%.

For `COc1ccc(C2c3cccn3-c3ccccc3N2C(=O)CN(C(=O)C(C)Cl)C2CC2)cc1` (centres undefined), the inhibition stood at 40%.

In turn, `CCCCN(CC(=O)N1c2ccccc2-n2cccc2C1C)C(=O)C(C)Cl` (centres undefined) registered an inhibition of 15%.

Regarding `COc1ccc(C2c3cccn3-c3ccccc3N2C(=O)CNC(=O)C(C)Cl)cc1` (centres undefined), the inhibition is 25%.

The values are drawn from ChEMBL document CHEMBL1136959, “Hit-to-lead optimization of pyrrolo[1,2-a]quinoxalines as novel cannabinoid type 1 receptor antagonists” (Bioorg Med Chem Lett, 2009).
